Source: ChEMBL document CHEMBL5325410, “Ras superfamily GTPase activating proteins in cancer: Potential therapeutic targets?” (Eur J Med Chem, 2023)

How the values were obtained:
[1] = target: T1, ADP-ribosylation factor GTPase-activating protein 1 (Homo sapiens, UniProt Q8N6T3); experiment: Inhibition of ARFGAP1 (unknown origin)
[2] = target: T1, ADP-ribosylation factor GTPase-activating protein 1; experiment: Inhibition of ARFGAP1 (unknown origin) at 10 uM relative to control
MDA-MB-231 = experiment: Inhibition of cell migration in human MDA-MB-231 cells at 2.5 uM measured after 12 hrs by transwell migration assay; format: functional

T1 sequence (Q8N6T3 whole entry): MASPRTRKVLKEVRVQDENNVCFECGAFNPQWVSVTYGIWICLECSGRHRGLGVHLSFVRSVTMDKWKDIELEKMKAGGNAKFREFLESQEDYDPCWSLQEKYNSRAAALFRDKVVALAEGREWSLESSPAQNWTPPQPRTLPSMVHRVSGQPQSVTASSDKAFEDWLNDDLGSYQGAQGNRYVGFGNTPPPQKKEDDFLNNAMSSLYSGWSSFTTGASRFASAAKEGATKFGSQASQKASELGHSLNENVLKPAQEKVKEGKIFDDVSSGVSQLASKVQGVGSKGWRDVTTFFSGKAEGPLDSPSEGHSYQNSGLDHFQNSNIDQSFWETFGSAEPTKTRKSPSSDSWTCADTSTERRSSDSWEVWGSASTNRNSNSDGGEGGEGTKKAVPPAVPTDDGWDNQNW

| EC50 [1] [nM] | inhibition [2] [%] | Compound | inhibition at 2.5 µM (MDA-MB-231) [%] |
| --- | --- | --- | --- |
| 500 | 84 | OC[C@H](Cc1ccccc1)Nc1nc(Oc2ccc3c(c2)CCC3)nc2c1ncn2Cc1ccc(-c2ccccc2)cc1 | 80 |
|  | 67 | FC(F)(F)c1cccc(Oc2nc(NCCc3cccc4ccccc34)c3ncn(Cc4ccc(-c5ccccc5)cc4)c3n2)c1 |  |
